Data taken from US9260461B2, “Water-soluble derivatives and prodrugs of acacetin and methods of making and using thereof” (Versitech Limited, priority 2014, dated 2016).
≈ marks a conversion by molar mass, not a printed value.

Experiments:
[1] = Solubility of the purified prodrugs versus parent compound acacetin; format: physicochemical; conditions: aqueous buffer; Tris solution, pH=7.0; read-out: solubility in Tris solution
Excerpt: Prodrug B: Light yellow solid. Yield 54%. C16H11O7PNa2 (408.21). EI-MS: m/z 387.04 [M+H—Na]^+. ^1H NMR (400 MHz, DMSO-d6): δ=12.90 (s, 1H), 8.04 (d, J=8.8 Hz, 2H), 7.10 (d, J=8.8 Hz, 2H), 7.02 (s, 1H), 6.98 (s, 1H), 6.60 (s, 1H), 3.89 (s, 3H) ppm.

[2] = test system: ventricular arrhythmias induced by ischemia-reperfusion injury; assay: Ischemia-reperfusion model in anesthetized rats (ventricular arrhythmias, heart rate, left ventricular contractile function); format: in vivo, Sprague-Dawley (SD) rats; conditions: for incidence of severe ventricular fibrillation: 90% in vehicle, P<0.05
Procedure: Adult male Sprague-Dawley (SD) rats (250-300 g) were anesthetized with pentobarbital (30 mg/kg i.p.), supplemented during the experiment when needed. The animal was intubated and ventilated. Body temperature was maintained at 37° C. with a temperature control system. The jugular vein was cannulated for drug administration and a plastic tubing (0.8 mm OD) was introduced into the left ventricle through the […] to measure the contractile function (e.g. left ventricular pressure). The left chest was opened under ventilation to expose the coronary artery. A fine silk was introduced at the upper ⅓ left anterior coronary descending artery (LA). After a 10-min stabilization period, the drug at 5, 10, or 20 mg/kg was intravenously administrated respectively in 5 min, and an equal volume (1 mL/kg) of vehicle was administrated for the control. LAD was then ligated for 10 min followed a 30-min reperfusion. ECG and blood pressure signals were continuously monitored and stored on an IBM compatible PC computer using a multiple channels data acquisition system (RM-6280C, Chengdu Instrument Ltd, Chendu, China) to record the incidence of ventricular arrhythmia (i.e. fibrillation, tachycardia, and premature beats) and […].
To investigate the effects of water-soluble Prodrug A on ventricular arrhythmias induced by ischemia-reperfusion injury, the in vivo ischemia-reperfusion model was established in SD rats. In this model, the animal, ventricular arrhythmias, including premature ventricular beats (PVBs), and ventricular tachycardia (VT), were developed with 10 min ischemia (ligation of coronary anterior descending artery) followed by […]. Ventricular fibrillation was frequently observed during the early reperfusion in the control animal with intravenous vehicle (FIG. 1A), but not in the animal treated with intravenous Prodrug A (10 mg/kg for 5 min, FIG. 1B). Prodrug A at 5 mg, 10, and 20 mg/kg decreased arrhythmia score (FIG. 1C) and arrhythmia duration in a dose-dependent manner (P<0.05 or P<0.01 vs. vehicle).
In addition to the anti-ventricular fibrillation, Prodrug A prevented heart rate reduction (FIG. 2A), and improved the decreased function contractile function including left ventricular systolic pressure (FIG. 2B), development pressure (FIG. 2C), and +dP/dT (FIG. 2D) induced by ischemia and/or reperfusion injury in a dose-dependent manner (P<0.05 or P<0.01 vs. vehicle).

[3] = test system: myocardial infarction induced by ischemia-reperfusion; assay: Ventricular infarct area (TTC staining) in anesthetized rats with ischemia-reperfusion; format: in vivo; conditions: 10 mg/kg i.v.; n=4, P<0.01 vs vehicle
[4] = target: T1, Kv1.5 current (hKV1.5 gene expressed in HEK 293 cells) (Homo sapiens, UniProt P22460); assay: Whole-cell patch-clamp, Kv1.5 current in HEK 293 cells; format: cell-based; conditions: 30 μM, representative cells
T1 construct: expressed in transfected cells
Procedure: HEK 293 cell line stably expressing the hKV1.5 gene (Wu et al., 2011) or hKv4.3 gene (Wu et al., 2013) was maintained in Dulbecco's modified eagle's medium (DMEM, Invitrogen, Hong Kong) supplemented with 10% fetal bovine serum and 400 μg/mL G418 in a 5% CO2 incubator. Cells were seeded on a glass cover slip for electrophysiology recording.
Ionic currents in HEK 293 cell lines and rat atrial myocytes were measured by the standard whole-cell patch-clamp technique using a standard pipette and bath solution with an EPC-10 amplifier and Pulse software (HEKA, Lambrecht, Germany). A 3M KCl-agar salt bridge was used as the reference electrode. The current signal was sampled at 5 kHz, recorded and stored in the hard disk of an IBM compatible computer. All experiments were conducted at room temperature (22-23° C.).
However, Kv1.5 current (FIG. 3D), Kv4.3 current (FIG. 3E) or IKACh (FIG. 3F) was inhibited by 10 μM acacetin in representative cells consistent with experimental reports.

[5] = In vivo conversion of prodrugs to acacetin, HPLC of blood samples from anesthetized rats; parameters: species or system SD rats
Procedure: Male SD rats (250-300 g) was anesthetized with phenobarbital (30 mg/kg, i.p.), and the jugular vein and femoral vein were cannulated for drug administration and blood sample collection. Tracheal cannulation was also performed for ventilation. Drug (20 mg/kg) was administrated for 30-60 min, and blood samples (˜0.2 mL) were collected before and at 5, 15, 30, 60, 90, and 120 min after drug administration using ascorbic acid and EDTA-preserved microcentrifuge tubes (1.5 mL) for HPLC (high-performance liquid chromatography) analysis of acacetin conversion.
The samples were stored in a −80° C. freezer until HPLC analysis for acacetin content. Except for the double blanks, pentamethylquercetin (500 ng/mL) was used for concentration calibration. The analysis was carried out on a Waters HPLC system (Milford, Mass.) equipped with an Alltech column (C18, 250 mm×4.6 mm i.d., 5 μm, Grace, Deerfield, Ill.). The mobile phase consisted of 45% acetonitrile in 1% of acetic acid. The UV detector was set at a single wavelength of 260 nm. The lower limit of quantification was 50 ng/mL.
The in vivo conversion of water-soluble prodrug A was determined in anesthetized SD rats. Prodrug A (20 mg/kg i.v.) was infused for 30-60 min, and levels of the parent compound acacetin in blood plasma were determined by HPLC analysis.

[6] = 10 mg and 20 mg/kg, before ligation
[7] = 5, 10 and 20 mg/kg i.v., dose-dependent, P<0.05 or P<0.01 vs. vehicle
[8] = i.v., dose-dependent, P<0.05 or P<0.01 vs. vehicle

T1 sequence (P22460 whole entry): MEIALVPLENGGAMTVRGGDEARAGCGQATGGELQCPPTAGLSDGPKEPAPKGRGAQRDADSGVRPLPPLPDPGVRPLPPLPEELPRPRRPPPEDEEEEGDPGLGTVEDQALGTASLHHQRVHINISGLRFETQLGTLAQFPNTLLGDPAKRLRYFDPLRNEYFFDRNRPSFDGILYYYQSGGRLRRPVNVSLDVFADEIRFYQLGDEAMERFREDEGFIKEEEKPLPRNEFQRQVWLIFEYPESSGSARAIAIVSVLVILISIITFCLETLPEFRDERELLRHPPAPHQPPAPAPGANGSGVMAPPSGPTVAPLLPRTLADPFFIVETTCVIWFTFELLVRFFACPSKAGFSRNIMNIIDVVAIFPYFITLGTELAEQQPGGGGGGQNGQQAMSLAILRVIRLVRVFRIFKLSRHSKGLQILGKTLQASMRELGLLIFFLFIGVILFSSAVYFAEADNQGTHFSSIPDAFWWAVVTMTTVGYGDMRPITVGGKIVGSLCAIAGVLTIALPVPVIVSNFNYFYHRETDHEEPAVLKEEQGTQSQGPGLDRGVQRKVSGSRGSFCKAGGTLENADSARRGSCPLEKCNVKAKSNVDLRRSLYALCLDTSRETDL

COc1ccc(-c2cc(=O)c3c(O)cc(OP(=O)(O)O)cc3o2)cc1 [Prodrug A]
solubility [1]: 10000 µg/mL (≈ 27.5 mM) | heart rate before coronary artery ligation [2, 6]: without affecting | left ventricular development pressure before coronary artery ligation [2, 6]: slightly but significantly increased | left ventricular systolic pressure before coronary artery ligation [2, 6]: slightly but significantly increased | incidence of severe ventricular fibrillation ([2]; 10 mg/kg i.v.): 30% | incidence of severe ventricular fibrillation ([2]; 20 mg/kg i.v.): 20% | arrhythmia duration [2, 7]: decreased | arrhythmia score [2, 7]: decreased | decreased +dP/dT induced by ischemia and/or reperfusion injury [2, 8]: improved | decreased left ventricular development pressure induced by ischemia and/or reperfusion injury [2, 8]: improved | decreased left ventricular systolic pressure induced by ischemia and/or reperfusion injury [2, 8]: improved | heart rate reduction induced by ischemia and/or reperfusion injury [2, 8]: prevented | ventricular infarct area [3]: reduced | effect on Kv1.5 current [4]: no inhibitory effect | concentrations of acacetin at different time-points after prodrug administration [5]: can reach therapeutic concentrations
